Entries after “also recorded” stand apart in the source; their conditions may differ.
Columns and labels:
[1] = tested on: canine glioma (CG) cells; test: chromium-release cell-mediated lympholysis (CML) vs. CG tumor in a dog; assay type: in vivo; details: for CG-specific CML in words: dog
From the text: Cellular immune response reflected the results reported in III, 1 above. […] This also is in the absence of CG antigen exposure. […] Thus, both cellular and humoral immunity appear to be modulatable in the absence of antigen by the compounds of the instant invention.

[2] = tested on: anti-CG IgG antibodies; test: tumor-specific (anti-CG) antibody production in a dog; assay type: in vivo
[3] = tested on: canine glioma cells; test: canine glioma tumor inhibition in nude rats (Formula II compound); assay type: in vivo, nude rat
Method: Fifty four nude rats (Harlan) were injected in the right flank with 5×10^6 canine glioma cells. Animals at the time of injection were between 52 and 63 days old and weighed approximately 200 g. The rats were divided into 7 groups, each group having a total number of 7 rats except for the control group, which totalled 12 animals. Compound IIc' was administered to the experimental animals at one of the following doses for each experimental group: 100 μg/kg, 10 μg/kg, 1 μg/kg, 0.1 μg/kg, 0.01 μg/kg and 0.001 μg/kg (phosphate buffer saline, M, W, F, I.P.). The control animals were injected with PBS (phosphate buffered saline) only. The volume of each injection was 100 μl. The injections of drug were simultaneously begun with injection of tumor cells. The animals were injected with the appropriate dosage of drug (1 ng/kg to […]) by I. P. injection and tumor length, width and depth were measured using caliphers each Monday, Wednesday and Friday (M, W, F) morning for approximately 9 weeks. Each point on the graphs represents the total of all rats for each group. […] The data were normalized for the greater number of control animals by multiplying the total tumor volume for the control animals by 7/12.

[4] = tested on: human peripheral blood leukocytes (HPBL); test: stimulation / inhibition of IgG production in HPBL; assay type: cell-based; details: HPBL
Method: Human peripheral blood leukocytes were cultured in a standard tissue culture medium. Aliquots of these cultured cells (1,000,000 cells/ml medium) were cultured for 6 hours, and the specified amount of Formula II compound was added; the cells were then cultured for an additional 90 hours. Sheep red blood cells (SRBC) conditioned with class-specific (IpG) goat anti-human antiserum (1:400) for 2 hours; then guinea pig complement (2%) for 2 hours were conjugated to Protein A as described in detail in Radioimmunoimaging and Radioimmunotherapy, Eds. S. W. Burchiel and B. A. Rhodes, Elsevier Science Publishing; New York, 1983, pp. 125-127, incorporated herein by reference.

## CC(C)OC(=O)C[C@H](O)C[C@@H](O)/C=C/c1c(C(C)C)nc(-c2ccccc2)n1-c1ccc(F)cc1 [Compound IIc']
[1]; December 14, 1987
  slope M of linear regression of toxicity: 0.05
[1]; February 9, 1988
  slope M of linear regression of toxicity: 0.35
[1]; February 17, 1988
  slope M of linear regression of toxicity: 0.75
[1]; March 31, 1988
  slope M of linear regression of toxicity: 0.05
[1]
  CG-specific CML in words: significant increase in CML; also recorded: large increase in the CML reactivity; also recorded: CML reactivity again returned to baseline
[1]; listed as IIIc'
  CG-specific CML in words: only baseline levels of CG-specific CML were present
[2]
  CG-specific antibody titer in words: titers of antibody increased over the control antibody titer significantly; also recorded: CG-specific antibody (IgG) production increased significantly; also recorded: rapidly (within a few days) reverted to baseline control levels
[3]; 10 and 100 μg/kg or 1 ng/kg
  cytostatic activity at other doses: Little or no cytostatic activity
[3]; nude rats, I.P., M, W, F
  most effective dosage for inhibition: 100 ng/kg
[4]
  IgG production in words: stimulated IgG production
  Inhibitory Concentration (nonspecific IgG production below normal): none found
[4]; immune stimulation
  optimal dose in vitro: 100 pM
